Patent publication US9532982B2, “Pharmaceutical combination comprising a phosphatidylinositol 3-kinase inhibitor and/an aromatase inhibitor” (Novartis AG, priority 2012, dated 2017)

Legend:
[1] = system: MCF7/Aro human breast carcinoma cells; assay: Δ4A induced MCF7/Aro cell proliferation (CellTiter-Glo), Compound A and exemestane, Example 1; type: cell-based; details: 10 nM Δ4A, 5 days, vs DMSO control
Protocol: (§1) Synergy is calculated by comparing a combination's response to those of its single agents, against the drug-with-itself dose-additive reference model.

[2] = system: MCF7/Aro human breast carcinoma cells; assay: Δ4A induced MCF7/Aro cell proliferation (CellTiter-Glo), Compound A and letrozole, Example 2; type: cell-based; details: 10 nM Δ4A, 5 days, vs DMSO control
Protocol: as §1

Compound	maximum level inhibition of Δ4A-driven cell proliferation, single agent [1]	maximum level inhibition of Δ4A-driven cell proliferation, single agent [2]
Cc1nc(NC(=O)N2CCC[C@H]2C(N)=O)sc1-c1ccnc(C(C)(C)C(F)(F)F)c1 [Compound A, (S)-Pyrrolidine-1,2-dicarboxylic acid 2-amide 1-({4-methyl-5-[2-(2,2,2-trifluoro-1,1-dimethyl-ethyl)-pyridin-4-yl]-thiazol-2-yl}-amide)]	61%	61%
C=C1C[C@@H]2[C@H](CC[C@]3(C)C(=O)CC[C@@H]23)[C@@]2(C)C=CC(=O)C=C12 [exemestane]	33%	–
N#Cc1ccc(C(c2ccc(C#N)cc2)n2cncn2)cc1 [letrozole]	–	53%
